According to patent publication US11274214B2, “Composition of water based coating with a low content of volatile organic compounds and high resistance to dirt handle, and, use of water based coating” (OXITENO S.A. INDÚSTRIA E COMÉRCIO, priority 2017, dated 2022):

Tests used:
[1] = Estimated Hansen solubility parameters and octanol/water partition coefficient of coalescents
Excerpt: In order to perform the comparative tests, two commercially available products, Texanol™ and OPTIFILM 300™, were used.

[2] = Physical and chemical properties of isopentyl succinate

isopentyl succinate
Solubility in water (suggested by octanol/water partition coefficients) [1]: low solubility in water
Density [2]: 0.966 g/mL
Freezing point [2]: −25 °C
Relative evaporation rate [2]: 0.029
Volatile content according to method 24 ([2]; method 24): 50%
